These results are taken from US5242938A, “Derivatives of virginiamycin M1” (Merck & Co., Inc., priority 1992, dated 1993).

The target of assay [1] is T1, CCK-B (guinea pig cortex) (Cavia porcellus, UniProt H0VZC5).
T1 construct: guinea pig cortical preparations; from tissue; host or cells: guinea pig brain cortex membranes
T1 sequence (H0VZC5 1-426): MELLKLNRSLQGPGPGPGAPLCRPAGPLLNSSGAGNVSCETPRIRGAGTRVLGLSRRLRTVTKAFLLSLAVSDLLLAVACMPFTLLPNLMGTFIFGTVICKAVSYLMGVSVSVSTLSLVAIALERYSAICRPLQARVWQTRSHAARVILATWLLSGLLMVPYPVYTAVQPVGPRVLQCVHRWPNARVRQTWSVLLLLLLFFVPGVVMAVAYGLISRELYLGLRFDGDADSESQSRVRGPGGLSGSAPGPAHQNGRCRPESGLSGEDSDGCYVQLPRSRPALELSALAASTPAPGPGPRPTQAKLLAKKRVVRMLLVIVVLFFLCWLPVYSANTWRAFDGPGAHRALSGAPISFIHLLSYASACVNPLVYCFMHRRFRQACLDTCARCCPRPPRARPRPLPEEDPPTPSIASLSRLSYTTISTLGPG
The experiment in a line: [125I]BHCCK-8 radioligand binding, guinea pig cortical preparation. To be noted: read-out: CCK binding inhibition - IC50, [125I]BHCCK. The protocol: (§1) The resulting supernatant was re-spun at 20,000×g for 20 minutes. […] Incubations were for 40 minutes at 4° C. and were terminated by filtration and washing with ice cold 100 mM saline. […] Incubations were for 30 minutes at room temperature and were terminated by filtration over GF/C filters and washing with 100 mM NaCl.

Assay [2] deals with T1, CCK-B (guinea pig cortex). The experiment in a line: [3H]L-365,260 CCK-B selective antagonist ligand binding, brain membranes. The settings on record: for IC50: read-out: CCK binding inhibition - IC50, [3H]L-365,260. The protocol: as §1
For assay [3], the target named is T2, CCK-A (rat pancreas) (Rattus norvegicus, UniProt P30551).
T2 construct: from tissue; host or cells: rat pancreas
T2 sequence (P30551 1-444): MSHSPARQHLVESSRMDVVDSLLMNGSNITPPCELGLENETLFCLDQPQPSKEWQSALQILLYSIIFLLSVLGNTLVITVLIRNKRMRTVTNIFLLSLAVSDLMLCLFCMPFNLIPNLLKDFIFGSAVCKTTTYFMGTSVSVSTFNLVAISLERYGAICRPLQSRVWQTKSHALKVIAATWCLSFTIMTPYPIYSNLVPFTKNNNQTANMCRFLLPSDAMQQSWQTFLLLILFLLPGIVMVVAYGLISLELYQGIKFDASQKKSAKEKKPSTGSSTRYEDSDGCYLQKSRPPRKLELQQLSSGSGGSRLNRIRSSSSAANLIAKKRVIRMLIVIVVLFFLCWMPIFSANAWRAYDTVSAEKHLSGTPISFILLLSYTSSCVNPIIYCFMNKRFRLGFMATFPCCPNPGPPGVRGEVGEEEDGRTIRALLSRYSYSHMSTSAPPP
The experiment in a line: [125I]BHCCK-8 radioligand binding, rat pancreatic preparation. The settings on record: read-out: CCK binding inhibition - IC50, [125I]BHCCK. The protocol:
as §1

Assay [4] deals with T2, CCK-A (rat pancreas). The experiment in a line: [3H]L-364,718 CCK-A selective antagonist ligand binding, pancreas. To be noted: read-out: CCK binding inhibition - IC50, [3H]L-364,718. The protocol: as §1
In another assay the test system is Bacillus sp. (Mb 633). Put plainly: Agar diffusion disc assay, Baci 633. The format is cell-based. To be noted: Bacillus, 18 h. The protocol:
(§2) Cultures employed in evaluating antimicrobial activity included plant pathogens, human and animal opportunistic pathogens and selected laboratory strains having specific-antibiotic sensitivities or chromosomal or R-plasmid-mediated resistances. […] The agar diffusion MIC's were determined using the method described by Barry in Anitbiotics in Laboratory Medicine, 2nd Ed., Ed. V. Lorian, pp. 1-63, William & Wilkins, Baltimore, 1986. Each test compound was dissolved in methanol to a concentration of 1 mg/ml. Serial dilutions of these compounds were also made to determine an agar diffusion MIC. 20 μl of each dilution was pipetted on to 6 mm paper discs, air dried and placed onto the surface of an agar plate seeded with the appropriate bacteria (~10^6 cfu). Seeded agar plates were incubated overnight (~18 hours) at 25° C. Zone sizes were measured to the nearest mm. Each compound was tested in triplicate and the results shown represent the mean.
For orientation: A growth-free zone around the sample is the usual read-out of agar diffusion tests.

The test system of assay [5] is Staphylococcus aureus (Mb 108, ATCC 6538P). The experiment in a line: Agar diffusion disc assay, Sta 108. Type of assay: cell-based. The settings on record: Staphylococcus aureus, ATCC6538P, 18 h; @ 20 g/disc; read-out: Inhibition zone diameter, Sta 108. The protocol: as §2
The test system of assay [6] is Bacillus subtilis (Mb 964, ATCC 6633). The experiment in a line: Agar diffusion disc assay, Subt 964. The format is cell-based. The settings on record: Bacillus subtilis, ATCC6633, 18 h; @ 20 g/disc; read-out: Inhibition zone diameter, Subt 964. The protocol:
as §2

The test system of assay [7] is Micrococcus luteus (Mb 1101, ATCC 9341). Put plainly: Agar diffusion disc assay, Micr 1101. Type of assay: cell-based. The settings on record: Micrococcus luteus; for MIC: read-out: Agar Diffusion MIC versus Micrococcus luteus; for zone of inhibition at 2.5 µg/disc: 2.50 μg/disc; for zone of inhibition at 5 µg/disc: 5.00 μg/disc; for zone of inhibition at 10 µg/disc: 10.0 μg/disc. The protocol: as §2

Assay [8] relates to Staphylococcus aureus (Mb 2983). The experiment in a line: Agar diffusion disc assay, Sta 2983. Type of assay: cell-based. The settings on record: Staphylococcus aureus, 18 h; @ 20 g/disc; read-out: Inhibition zone diameter, Sta 2983. The protocol:
as §2

The subject of assay [9] is Corynebacterium pseudodiphtheriticum (Mb 261, ATCC 9742). Put plainly: Agar diffusion disc assay, Cory 261. The format is cell-based. To be noted: Corynebacterium pseudodiphtheriticum, ATCC9742, 18 h; @ 20 g/disc; read-out: Inhibition zone diameter, Cory 261. The protocol:
as §2

The subject of assay [10] is Streptococcus faecium (Mb 2820). The experiment in a line: Agar diffusion disc assay, Str 2820. To be noted: Enterococcus faecium, 18 h; @ 20 g/disc; read-out: Inhibition zone diameter, Str 2820. The format is cell-based. The protocol:
as §2

Assay [11] concerns Streptococcus agalactiae (Mb 2875). The experiment in a line: Agar diffusion disc assay, Str 2875. The format is cell-based. The settings on record: Streptococcus agalactiae, 18 h; @ 20 g/disc; read-out: Inhibition zone diameter, Str 2875. The protocol: as §2
The subject of assay [12] is Salmonella gallinarum (Mb 1287). The experiment in a line: Agar diffusion disc assay, Salm 1287. To be noted: Salmonella enterica, GALLINARUM, 18 h; @ 20 g/disc; read-out: Inhibition zone diameter, Salm 1287. The format is cell-based. The protocol: as §2
Assay [13] deals with Escherichia coli (Mb 1418). Put plainly: Agar diffusion disc assay, Coli 1418. Type of assay: cell-based. To be noted: Escherichia coli, 18 h; @ 20 g/disc; read-out: Inhibition zone diameter, Coli 1418. The protocol: as §2
The subject of assay [14] is Pseudomonas stutzeri (Mb 1231, ATCC 11607). Put plainly: Agar diffusion disc assay, Pseu 1231. To be noted: Stutzerimonas stutzeri, ATCC11607, 18 h; @ 20 g/disc; read-out: Inhibition zone diameter, Pseu 1231. The format is cell-based. The protocol: as §2
In assay [15] the test system is En terobacter aergenes (Mb 835). Put plainly: Agar diffusion disc assay, Ent 835. The format is cell-based. To be noted: 18 h; @ 20 g/disc; read-out: Inhibition zone diameter, Ent 835. The protocol: as §2
[16] abbreviates: @ 20 g/disc, read-out: Inhibition zone diameter, Baci 633.
[17] abbreviates: ATCC9341, 18 h, @ 20 g/disc, read-out: Inhibition zone diameter, Micr 1101.
Where [18] appears, read: ATCC9341, 25° C., ~18 hours, read-out: Mean of triplicate zone size versus Micrococcus luteus.
Where [19] appears, read: ATCC9341, 20.0 μg/disc, 25° C., ~18 hours, read-out: Mean of triplicate zone size versus Micrococcus luteus.

One may read the IC50 as the concentration needed to halve the response being measured. One may read the MIC as the lowest concentration found to suppress growth.

Converted amounts (≈) assume the structure as drawn. Read-outs that look alike come from different tables or passages of the source.

Turning to `CC(=O)O[C@@H]1/C=C(C)/C=C/CNC(=O)/C=C/[C@@H](C)[C@@H](C(C)C)OC(=O)C2=CCCN2C(=O)c2coc(n2)CC(=O)C1` [Example 2], the IC50 in assay [1] was 0.7 µM; in [2], more than 3 µM; on CCK-A (rat pancreas) [3] it was more than 3 µM; at CCK-A (rat pancreas) [4], more than 3 µM. Also, the “A.R. = agonist ratio = IC50([3H]L365,260)/IC50([125I]CCK)” value in [2] was more than 25. Moreover, in assay [2] (beside IC50 >3.0), the “percentage in parentheses beside >3.0, [3H]L-365,260 (inhibition at top concentration, not defined)” value came to 21%. Besides, the zone of inhibition at 20 µg/disc in the assay on Bacillus sp. (Mb 633) (setting [16]) was found to be 0 mm; in assay [5] it was 11 mm; in assay [6], 0 mm; in assay [7] (setting [17]) it was 21 mm; in assay [7] (setting [19]), 21 mm; in assay [8], 0 mm. For the same compound, the zone of inhibition at 20 µg/disc in [9] was determined as 13 mm; in assay [10], 0 mm; in assay [11], 0 mm; in [12], 0 mm; in assay [13], 0 mm; in assay [14], 0 mm. Besides, the zone of inhibition at 20 µg/disc in [15] turned out to be 0 mm. In assay [7] (ATCC9341, 18 h), the MIC was found to be 3.24 µM (≈ 1.84 µg/mL). Besides, in assay [7] (setting [18]), the zone of inhibition at 2.5 µg/disc is 7 mm. Moreover, the zone of inhibition at 5 µg/disc in assay [7] (setting [18]) is 14 mm. Also, the zone of inhibition at 10 µg/disc in assay [7] (setting [18]) came out at 18 mm.

On to `CCC(=O)O[C@@H]1/C=C(C)/C=C/CNC(=O)/C=C/[C@@H](C)[C@@H](C(C)C)OC(=O)C2=CCCN2C(=O)c2coc(n2)CC(=O)C1` [Example 3], for which the IC50 is 0.6 µM in assay [1], 1 µM in assay [2], more than 3 µM at CCK-A (rat pancreas) [3] and more than 3 µM at CCK-A (rat pancreas) [4]. In addition, the “A.R. = agonist ratio = IC50([3H]L365,260)/IC50([125I]CCK)” value in assay [2] amounted to 2. Further, the zone of inhibition at 20 µg/disc with Bacillus sp. (Mb 633) (read-out: Inhibition zone diameter, Baci 633, @ 20 g/disc) turned out to be 11 mm; in assay [5] it was 0 mm; in assay [6], 21 mm; in assay [7] (setting [17]) it was 0 mm; in assay [7] (setting [19]), 19 mm; in assay [8], 12 mm. Besides, the zone of inhibition at 20 µg/disc in [9], in assay [10], in [11], in assay [12], in [13] and in assay [14] was 0 mm each time. In addition, the zone of inhibition at 20 µg/disc in assay [15] is 0 mm. The MIC in assay [7] (ATCC9341, 18 h) is 2.51 µM (≈ 1.46 µg/mL). The zone of inhibition at 2.5 µg/disc in [7] (setting [18]) is 7 mm. Further, the zone of inhibition at 5 µg/disc in assay [7] (setting [18]) was determined as 13 mm. In addition, the zone of inhibition at 10 µg/disc in [7] (setting [18]) amounted to 17 mm.

On to `CCCCC(=O)O[C@@H]1/C=C(C)/C=C/CNC(=O)/C=C/[C@@H](C)[C@@H](C(C)C)OC(=O)C2=CCCN2C(=O)c2coc(n2)CC(=O)C1` [Example 4], for which the IC50 in [1] is 0.5 µM; in [2], 1.2 µM; at CCK-A (rat pancreas) [3], more than 3 µM; on CCK-A (rat pancreas) [4] it was more than 3 µM. Besides, in assay [2], the “A.R. = agonist ratio = IC50([3H]L365,260)/IC50([125I]CCK)” value turned out to be 2. For the same compound, the zone of inhibition at 20 µg/disc with Bacillus sp. (Mb 633) (setting [16]) was 0 mm; in assay [5], 0 mm; in [6], 0 mm; in assay [7] (setting [17]), 25 mm; in assay [7] (setting [19]), 22 mm; in [8] it was 0 mm. Besides, the zone of inhibition at 20 µg/disc in [9], in [10], in [11], in assay [12], in [13] and in assay [14] was 0 mm each time. In addition, the zone of inhibition at 20 µg/disc in assay [15] stood at 0 mm. Further, the MIC in assay [7] (ATCC9341, 18 h) turned out to be 0.54 µM (≈ 0.329 µg/mL). In [7] (ATCC9341, 1.25 μg/disc, 25° C., ~18 hours, read-out: Mean of triplicate zone size versus Micrococcus luteus), the zone of inhibition at 1.25 µg/disc was found to be 12 mm. In addition, in [7] (setting [18]), the zone of inhibition at 2.5 µg/disc was 16 mm. In addition, in assay [7] (setting [18]), the zone of inhibition at 5 µg/disc was determined as 19 mm. The zone of inhibition at 10 µg/disc in assay [7] (setting [18]) is 21 mm.
